Source: the supplement of paper PMC10307832

How the values were obtained:
Test in all cases: relative viability (nuclei count vs DMSO), 5 days (fraction); higher = more cells survive
[1] = compound: Nc1nc(Nc2ccc3c(c2)CC[C@@H](N2CCCC2)CC3)nn1-c1cc2c(nn1)-c1ccccc1CCC2 [Bemcentinib] + CC(=O)c1c(C)c2cnc(Nc3ccc(N4CCNCC4)cn3)nc2n(C2CCCC2)c1=O [Palbociclib] (partner 0.5 µM)
Method in brief: (§1)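 One day after seeding in 1536-well plates, lung cancer cell lines were dosed by pin tool. Dosing was either single-drug or a fixed anchor-drug dose plus five library-drug doses (not always all listed) in √10 steps. After 5 days, nuclei were stained in one fix-and-stain step and counted on 4× images, and relative viability is the nuclei count of treated wells over that of vehicle wells, given as the median of duplicate plates.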

Axitinib + Crizotinib = compound: CNC(=O)c1ccccc1Sc1ccc2c(/C=C/c3ccccn3)n[nH]c2c1 [Axitinib] + C[C@@H](Oc1cc(-c2cnn(C3CCNCC3)c2)cnc1N)c1c(Cl)ccc(F)c1Cl [Crizotinib] (partner 1 µM)
Method in brief: as §1

Bemcentinib + Tozasertib = compound: Nc1nc(Nc2ccc3c(c2)CC[C@@H](N2CCCC2)CC3)nn1-c1cc2c(nn1)-c1ccccc1CCC2 [Bemcentinib] + Cc1cc(Nc2cc(N3CCN(C)CC3)nc(Sc3ccc(NC(=O)C4CC4)cc3)n2)n[nH]1 [Tozasertib] (partner 0.1 µM)
Method in brief: as §1

Axitinib + Luminespib = compound: CNC(=O)c1ccccc1Sc1ccc2c(/C=C/c3ccccn3)n[nH]c2c1 [Axitinib] + CCNC(=O)c1noc(-c2cc(C(C)C)c(O)cc2O)c1-c1ccc(CN2CCOCC2)cc1 [Luminespib] (partner 0.01 µM)
Method in brief: as §1

**Q.** For NCI-H650, which relative viability ([1]; first compound 0.04 µM) is on record?
**A.** 0.337

**Q.** And the relative viability ([1]; first compound 0.1265 µM)?
**A.** 0.298

**Q.** What about the relative viability ([1]; first compound 0.4 µM) of the same cell line?
**A.** 0.338

**Q.** What about the relative viability ([1]; first compound 1.265 µM) of the same cell line?
**A.** 0.333

**Q.** And the relative viability ([1]; first compound 4 µM)?
**A.** 0.298

**Q.** And the relative viability (Axitinib + Crizotinib; first compound 0.005 µM)?
**A.** 0.859

**Q.** And the relative viability (Axitinib + Crizotinib; first compound 0.01581 µM)?
**A.** 0.745

**Q.** And the relative viability (Axitinib + Crizotinib; first compound 0.05 µM)?
**A.** 0.779

**Q.** What about the relative viability (Axitinib + Crizotinib; first compound 0.1581 µM) of the same cell line?
**A.** 0.782

**Q.** What about the relative viability (Axitinib + Crizotinib; first compound 0.5 µM) of the same cell line?
**A.** 0.903

**Q.** What about the relative viability (Bemcentinib + Tozasertib; first compound 0.04 µM) of the same cell line?
**A.** 0.715

**Q.** And the relative viability (Bemcentinib + Tozasertib; first compound 0.1265 µM)?
**A.** 0.848

**Q.** What about the relative viability (Bemcentinib + Tozasertib; first compound 0.4 µM) of the same cell line?
**A.** 0.798

**Q.** And the relative viability (Bemcentinib + Tozasertib; first compound 1.265 µM)?
**A.** 0.77

**Q.** What about the relative viability (Bemcentinib + Tozasertib; first compound 4 µM) of the same cell line?
**A.** 0.718

**Q.** And the relative viability (Axitinib + Luminespib; first compound 0.005 µM)?
**A.** 0.798

**Q.** And the relative viability (Axitinib + Luminespib; first compound 0.01581 µM)?
**A.** 0.766

**Q.** What about the relative viability (Axitinib + Luminespib; first compound 0.05 µM) of the same cell line?
**A.** 0.589

**Q.** What about the relative viability (Axitinib + Luminespib; first compound 0.1581 µM) of the same cell line?
**A.** 0.764

**Q.** And the relative viability (Axitinib + Luminespib; first compound 0.5 µM)?
**A.** 0.822
